Reference: patent publication US20250163387A1, “HUMAN PITUITARY NEUROENDOCRINE TUMOR ORGANOIDS AND METHODS OF MAKING AND USING THE SAME” (ARIZONA BOARD OF REGENTS OF THE UNIVERSITY OF ARIZONA, A …, priority 2022, published 2025)

Legend:
Assay type in all cases: cell-based, human
[1] = test system: FKBP5; assay: GR modulation: GR target gene FKBP5 expression in PitNET organoids
[2] = test system: iPSC^USP48MV organoids; assay: Nuclear irregularity index (NII) morphometric analysis; details: 500 nM
Procedure: (§1) Nuclear Morphometric Analysis (NMA) using treated organoids was performed based on a published protocol that measures cell viability based on the changes in nuclear morphology of the cells using nuclear stain Hoechst or DAPI [30]. Images of organoid nuclei were analyzed using the ImageJ Nuclear Irregularity Index (NII) plugin for key parameters that included cell area, radius ratio, area box, aspect, and roundness. Using the published spreadsheet template, the NII of each cell was calculated with the following formula: NII=Aspect−Area Box+Radius Ratio+Roundness. The area vs NII of vehicle-treated cells were plotted as a scatter plot using the template and considered as the normal cell nuclei. The same plots were generated for each condition, and the NII and area of treated cells were compared to the normal nuclei, and classified as one of the following NMA populations: Normal (N; similar area and NII), Mitotic (S; similar area, slightly higher NII), Irregular (I; similar area, high NII), Small Regular (SR; apoptotic, low area and NII), Senescent (LR; high area, low NII), Small Irregular (SI; low area, high NII), or Large Irregular (LI; high area, high NII). […] The percentage of cells in each NII classification category were calculated and plotted as a histogram using GraphPad Prism.

[3] = test system: iPSC^ctrl organoids; assay: as above; details: 500 nM
Procedure: as §1

[4] = test system: SSTR5; assay: Differential expression of SSTR5 in iPSC generated pituitary tumor organoids
[5] = test system: iPSC^USP48MV organoids; assay: ACTH secretion ELISA of conditioned media; details: 500 nM
Procedure: (§2) Concentration of secreted ACTH in conditioned media that was collected from organoid cultures was measured using the Human ACTH ELISA Kit (Novus Biologicals, NBP2-66401) according to the manufacturer's protocol. The enzyme-substrate reaction was measured spectrophotometrically (BioTek Gen5 Micro Plate Reader Version 3.11) at a wavelength of 450 nm and the ACTH concentration (pg/mL) was interpolated using a standard curve with a 4-parameter logistic regression analysis using GraphPad Prism (Version 9.2.0).

[6] = test system: iPSC^ctrl organoids; assay: ACTH secretion ELISA of conditioned media; details: 500 nM
Procedure: as §2

[7] = test system: iPSC^ctrl organoids; assay: Proliferation by EdU uptake; details: drug alone, 500 nM
Procedure: Organoids were immunostained using published protocols by our laboratory. Proliferation was measured by using 5-ethynyl-2'-deoxyuridine (EdU) incorporation according to the Manufacturer's protocol (Click-IT EdU Alexa Fluor 555 Imaging Kit, Thermo Fisher Scientific C10338). Costaining was performed by blocking fixed organoids with 2% donkey serum (Jackson Immuno Research, #017-000-121) diluted in 0.01% PBST for 1 hr. at room temperature. Organoids were then incubated overnight at 4° C. with primary antibodies followed by secondary antibodies and Hoechst (Thermo Fisher Scientific H1399, 1:1000 in 0.01% PBST) for 1 hr at room temperature. Human specific primary antibodies used included: rabbit anti-ACTH (Thermo Fisher Scientific 701293, 1:250), rabbit anti-Synaptophysin (Thermo Fisher Scientific PA5-27286, 1:100), […] (Thermo Fisher Scientific PA5-98650, 1:50), rabbit anti-LH (Thermo Fisher Scientific PA5-102674, 1:100), mouse anti-FSH (Thermo Fisher Scientific MIF2709, 1:100), mouse anti-PRL (Thermo Fisher Scientific CF500720, 1:100), Alexa Flour conjugated GH (NB500-364AF647, 1:100) and mouse anti-CAM5.2 (SIGMA […]-95, 1:250). The secondary antibodies used included Alexa Fluor 488 Donkey Anti Rabbit IgG (H+L) (Thermo Fisher Scientific A21206, 1:100) or Alexa Fluor 647 Donkey Anti Mouse IgG (H+L) (Thermo Fisher Scientific A31571, 1:100). Organoids were visualized and images acquired by confocal microscopy using the Nikon CrestV2 Spinning Disk. Fluorescence intensity and percentage of EdU positive cells of total cells, were calculated using Nikon Elements Software (Version 5.21.05).

[8] = test system: hPITOs generated from CD patients; assay: High-throughput drug screen, MTS assay; details: 1 uM, 72 hrs
Procedure: Patient adenoma-derived pituitary organoids were grown in 96-well plates and treated with 147 small molecules taken from the NCI AOD9 compound library for 72 hrs. (https://dtp.cancer.gov/organization/dscb/obtaining/available_plates.html). Drugs were diluted from 10 mM DMSO stock plates into 100 uM DMSO working stocks with a final concentration of 1 uM. All vehicle controls were treated with 0.1% DMSO. Organoid proliferation was measured using CellTiter 96® AQueous One Solution Cell Proliferation Assay kit (MTS, Promega, G3582) according to the manufacturer's instruction. Organoid death was calculated based on the absorbance readings at 490 nm, collected from the MTS assay relative to the vehicle controls. Drug screens were performed with biological replicates in same screen. Drugs were selected based on their ability to target key signaling pathways and clinical relevance to the treatment. Drug sensitivity is represented by cell viability and is significant at <0.5 suppressive effect of the drugs. The percent cell viability relative to the vehicle control was calculated. Correlation coefficient across each organoid were calculated using Pearson method to assess confidence in replication. Variance Component was detected for each drug across all organoids. A random effect model was run with a single random factor for each drug and estimated variance was calculated by rejecting the null hypothesis that there isn't variation among samples. The drug responses were grouped by variance factor large (vc>100), median (100>vc>50), and small (vc<50). Heatmap was used to display the differential responses in cell viability for the drugs.
Tumor recurrence can occur in as many as 30-50% of CD patients after successful surgical treatment. Unfortunately, bilateral adrenalectomy is the chosen surgical treatment for patients with persistent CD [35]. Bilateral adrenalectomy leads to the increased risk for development of Nelson's syndrome (progressive hyperpigmentation due to ACTH secretion and expansion of the residual pituitary tumor). Although the risk of developing Nelson's syndrome following adrenalectomy can be reduced by 50% with stereotactic radiotherapy, there is a need to develop medical therapies that directly target the pituitary adenoma. Thus, we established a high-throughput drug screening assay using patient-derived pituitary organoids. […] The replicates behaved consistently with the drug response with the correlation scores of >0.8 for these samples (FIG. 3a). We estimated the variance component for each drug across all organoids. […] The drug responses were grouped by variance factor large, median, and small. The larger the variance the more variable is the drug response across the organoids. […]

With CC#C[C@]1(O)CC[C@H]2[C@@H]3CCC4=CC(=O)CCC4=C3[C@@H](c3ccc(N(C)C)cc3)C[C@@]21C [Mifepristone] the “differential expression of FKBP5” value [1] was “significantly reduced”, the “apoptotic cells by nuclear morphology (NII)” value [2] was “not observed” and the “apoptotic cells by nuclear morphology (NII)” value [3] was “not observed”. For the same compound, the “expression of SSTR5” value ([4]; iPSC organoids (ctrl, USP48MI, USP48MV, USP8), 500 nM, vs vehicle) was “significant induction”, the “differential expression of SSTR5” value ([4]; iPSC^ctrl organoids, drug alone (Mife 500 nM, GANT 5 uM, Keto 10 uM, Dexa 100 nM)) was “significantly induced” and the “magnitude of ACTH secretion induced” value [5] was “significantly greater than the effect of relacorilant”. For the same compound, the “magnitude of ACTH secretion induced” value [6] was “significantly greater than the effect of relacorilant”, the “cell proliferation (EdU uptake)” value [7] was “significant increase” and the “response of the adenoma cells within the organoids” value ([8]; hPITO7, 10 and 25) was about 0%. For the same compound, the “response of the adenoma cells within the organoids” value ([8]; hPITO34 and hPITO35) was 50%.
